Assay results published in US6566359B1, “2,4,6-trimethyl-1,4-dihydro-pyridine-3,5-dicarboxylic acid esters as neuroprotective drugs” (Board of Supervisors of Louisiana State University and …, priority 2002, dated 2003).
Where “and” joins values, the source holds several entries; their conditions need not be identical. Equal values may be shown once.

Tests used:
[1] = system: human COX-2 promoter; assay: IL-1β-induced COX-2 promoter-luciferase transcription in CV-1 cells; type: cell-based; conditions: 100 nM compound, 10 nM IL-1β
Experimental: (§1) To test the ability of LAU-0900 series compounds to inhibit COX-2 expression, a kidney cell line was transiently transfected with the 830-base-pair human COX-2 promoter construct (proximal to the transcription start site) fused to the luciferase gene as a reporter as described below.
(§2) Transfection of CV-1 cells with human COX-2promoterfused with LUC: C V-1 Cells (African green monkey kidney cell line, ATCC # CCL-17) were grown in DMEM-F12 (GIBCO-BRL, Rockville, Md.) supplemented with 10% FBS (fetal bovine serum) in 6-well plates. At 80% confluence, the cells were transfected with 10 μg human COX-2 promoter-LUC construct (containing 830 base pairs of the human COX-2 promoter (donated by Dr. Stephen Prescot, Huntsman Cancer Institute, Salt Lake City, Utah) using a liposomal transfection reagent (DOTAP, Roche Diagnostics, Gmbh, Mannheim, Germany). Promoterless β-galactosidase construct (Promega, Madison, Wis.) was co-transfected to assess transfection efficiency. Three hours after transfection at 37° C., the medium was removed, and the cells were washed with phonsphate-buffered saline solution, pH 7.2 (PBS; Gibco-BRL, Rockville Md. The plates were further incubated at 37° C. in complete medium DMEM-F12 with 10% FBS for about 8-10 hr. Before the addition of the inducers of COX-2, PAF (100 nM) or IL-1β (10 ng/ml), the CV-1-transfected cells were serum-starved for 8 hr at 37° C. After the addition of the inducers, the cells were incubated for 8-10 hr at 37° C. Then the medium was removed, the cells were washed with PBS, harvested, and frozen at −80° C. until used for assays.
(§3) To test the effectiveness of the LAU-0900 series compounds, the transfected cells were treated for 1 hr with 100 nM of various LAU-0900 series compounds before the addition of the inducers (either PAF or IL-1β, and the LAU-0900 compound remained in the medium throughout the incubation period.
(§4) Luciferase assay of transfected CV-1 cells: Frozen cells were homogenized in 300 μl luciferase assay buffer (“ALL”, Analytical Luminescence Laboratory, San Diego, Calif.), and cellular debris was collected as a pellet by centrifugation at 2800×g for 20 min at 4° C. Supernatants (20-30 μl) were normalized to 1 μg/ml of total protein content, and were mixed with 70-80 μl ALL buffer. Reactions were initiated by injection of 100 μl of 1 mM luciferin (Sigma Chemical Co., St. Louis, Mo.). The relative light units were determined by using an ALL luminometer that recorded over 20-second intervals.

[2] = MCA-O with 21 days reperfusion, Cresil-Violet histology; type: in vivo, C57-bl/6 mice; conditions: 30 mg/kg i.p. once 1 hr after onset of reperfusion
Experimental: In a second group of experiments, C57-bl/6 mice were treated with either a sham procedure, or with 1 hr with MCA-O followed by a reperfusion period of 21 days. Cresil-violet staining was used to assess brain damage in brain slices obtained as above. […] (Data not shown.). […] (Data not shown).
In a third set of experiments, the MCA-O treated mice were injected once with the LAU-0900 series compounds (LAU-0901, LAU-0904, and LAU-0911; at 30 mg/kg) or vehicle 1 hr after the onset of reperfusion. The LAU-0900 compounds were solubilized in 45% 2-hydroxypropyl-β-cyclodextrine (Sigma Chemical Co.), and delivered intraperitoneally. The mice were reperfused for 21 days, and killed. Coronal sections of mouse brains were processed for histology, and stained with Cresil-Violet. Sections from individual animals were analyzed, with pictures of the right side (infarcted) of the brain compared to the left side, which show almost no damage.
(Data not shown). […] Almost normal morphology was found in the brains of the LAU-0900-treated animals, indicating a high degree of protection. (Data not shown), even though administered 1 hr after the initiation of reperfusion.

[3] = system: human COX-2 promoter; assay: PAF-induced COX-2 promoter-luciferase transcription in CV-1 cells; type: cell-based; conditions: 100 nM compound, 100 nM PAF
Experimental: as §1, §2, §3, §4

[4] = Middle cerebral artery occlusion (MCA-O) stroke model, infarct volume by TTC; type: in vivo, C57BL/6 mice; conditions: 30 mg/kg 1 hr after reperfusion following 1 hr of MCA-O
[5] = molecular target: T1, PAF receptor in CHO-A cells (moderately exp PAF-R) (Cavia porcellus, UniProt P21556); assay: Competition for 3H-PAF binding to CHO-A cell homogenates
T1 construct: expressed in transfected cells; host or cells: Chinese hamster ovary cells: CHO-B (high expression) and CHO-A (mild expression), used as cell homogenates
T1 sequence (P21556 whole entry): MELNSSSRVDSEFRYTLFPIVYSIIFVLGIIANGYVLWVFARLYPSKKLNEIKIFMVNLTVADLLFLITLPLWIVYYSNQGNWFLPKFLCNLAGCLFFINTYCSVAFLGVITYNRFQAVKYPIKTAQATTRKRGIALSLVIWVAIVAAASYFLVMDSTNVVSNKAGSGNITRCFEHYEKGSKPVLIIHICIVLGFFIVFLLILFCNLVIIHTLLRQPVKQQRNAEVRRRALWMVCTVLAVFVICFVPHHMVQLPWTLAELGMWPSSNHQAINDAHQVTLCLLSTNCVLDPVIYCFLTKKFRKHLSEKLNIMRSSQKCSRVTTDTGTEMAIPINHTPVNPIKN
Experimental: Binding studies were performed on subcellular fractions of tissues obtained from rat brain cortex, according to procedures described in V. Marcheselli et al., “Distinct platelet-activating factor binding sites in synaptic endings and in intracellular membranes of rat cerebral cortex,” J. biol. Chem., vol. 265, pp. 9140-9145 (1990). Freshly dissected brain tissues were homogenized in ice-cold buffer (50 mM Tris-HCl, 2 mM EGTA, 5 mM PMSF, 250 mM sucrose, 7.4 pH). Subcellular fractions were obtained by differential centrifugation. The microsomal fraction was sedimented after 100,000×g for 1 hour centrifugation. In addition, three cell lines from Chinese hamster ovary (CHO) with varying expression of PAF receptors, CHO-A, CHO-B, and CHO-C cells (from Dr. Takao Shiizu, University of Tokyo, Tokyo, Japan) were cultured to the fourth-passage cells. These cells were cultured to confluence, then detached from their culturing flasks, and pelleted by rapid centrifugation (3,000 rpm, 10 min). Cellular pellets were homogenized in ice-cold buffer as described above. Freshly obtained microsomal fractions or CHO cellular homogenates were utilized for saturation, displacement, and competition studies using ^3H-PAF as the hot ligand, unlabeled-PAF to detect non-specific binding, and a LAU-0900 series compound to displace by competition ^3H-PAF bound to a receptor. […]

[6] = molecular target: T2, cell-surface-type PAF receptor over-expressed in CHO-B cells (Cavia porcellus, UniProt P21556); assay: Competition for 3H-PAF binding to CHO-B cell homogenates
T2 construct: expressed in transfected cells; host or cells: Chinese hamster ovary cells: CHO-B (high expression) and CHO-A (mild expression), used as cell homogenates
T2 sequence (P21556 whole entry): as above
Experimental: (§5) Binding studies were performed on subcellular fractions of tissues obtained from rat brain cortex, according to procedures described in V. Marcheselli et al., “Distinct platelet-activating factor binding sites in synaptic endings and in intracellular membranes of rat cerebral cortex,” J. biol. Chem., vol. 265, pp. 9140-9145 (1990). Freshly dissected brain tissues were homogenized in ice-cold buffer (50 mM Tris-HCl, 2 mM EGTA, 5 mM PMSF, 250 mM sucrose, 7.4 pH). Subcellular fractions were obtained by differential centrifugation. The microsomal fraction was sedimented after 100,000×g for 1 hour centrifugation. In addition, three cell lines from Chinese hamster ovary (CHO) with varying expression of PAF receptors, CHO-A, CHO-B, and CHO-C cells (from Dr. Takao Shiizu, University of Tokyo, Tokyo, Japan) were cultured to the fourth-passage cells. These cells were cultured to confluence, then detached from their culturing flasks, and pelleted by rapid centrifugation (3,000 rpm, 10 min). Cellular pellets were homogenized in ice-cold buffer as described above. Freshly obtained microsomal fractions or CHO cellular homogenates were utilized for saturation, displacement, and competition studies using ^3H-PAF as the hot ligand, unlabeled-PAF to detect non-specific binding, and a LAU-0900 series compound to displace by competition ^3H-PAF bound to a receptor.
(§6) See B. Liu et al., “Implication of protein kinase C alpha in PAF-stimulated phospholipase D Activation in Chinese hamster ovary (CHO) cells expressing PAF receptor,” Biochem. Biophys. Res. Commun., vol.214, pp.418-423 (1995). […] Both the constants of inhibition (KI) and 50% of inhibitory activity (IC50) were significant at a low concentration of LAU-0903.

[7] = system: CHO-C cells (do not exp PAF-R); assay: Competition for 3H-PAF binding to CHO-C cell homogenates
Experimental: as §5, §6

[8] = Evans Blue accumulation in brain cortex in vasogenic cerebral edema; type: in vivo, rat; conditions: LAU-0903 30 μg/kg intra-ventricularly 15 min before injury; dexamethasone 6.2 μg/kg i.p. every 8 hr for 24 hr; 2 hr and 12 hr after injury
[9] = system: COX-2 mRNA; assay: COX-2 mRNA expression after cryogenic injury (vasogenic cerebral edema), Northern blot; type: in vivo, Sprague-Dawley rats; conditions: rat
Experimental: Brain COX-2 gene expression is known to be enhanced as a result of injury as well as by seizures (Marcheselli and Bazan, 1996), and PAF receptors are involved in COX-2 expression (Bazan et al, 1994). To further test the LAU-0900 series compounds as PAF antagonists, the compounds were tested in an in vivo model for the potential blocking of injury-induced COX-2 induction. Adult Sprague-Dawley rats, 175 to 250 g body weight, were purchased from a commercial breeder (Charles River Laboratories, Wilmington, Mass.). One group of four rats received an intra-cerebroventricular injection of LAU-0903 (10 mg/kg in DMSO as a vehicle), 15 min before the generation of cerebral edema. Another group of four rats received an intraperitoneal injection of desxmethasone every 8 hr for a period of 24 hr prior to injury. Animals were immobilized by ether anesthesia, and vasogenic cerebral edema was generated by the application of a liquid nitrogen-cooled probe for 1 min on the parietal region of the skull. The rats were allowed to recover for either 2 or 6 hr before being decapitated to sample the brain. Total brain tissues were obtained, and total-RNA was extracted. The RNA was then assayed by Northern blot analysis for COX-2 mRNA. […] Autoradiography or phosphorimage quantification was performed.

[10] = molecular target: intracellular type PAF receptor (rat brain microsomal preparations) (Rattus norvegicus, UniProt P46002); assay: Competition for 3H-PAF binding to rat brain cortex microsomal membranes; conditions: rat brain cortex microsomal preparation
intracellular type PAF receptor (rat brain microsomal preparations), sequence (P46002 whole entry): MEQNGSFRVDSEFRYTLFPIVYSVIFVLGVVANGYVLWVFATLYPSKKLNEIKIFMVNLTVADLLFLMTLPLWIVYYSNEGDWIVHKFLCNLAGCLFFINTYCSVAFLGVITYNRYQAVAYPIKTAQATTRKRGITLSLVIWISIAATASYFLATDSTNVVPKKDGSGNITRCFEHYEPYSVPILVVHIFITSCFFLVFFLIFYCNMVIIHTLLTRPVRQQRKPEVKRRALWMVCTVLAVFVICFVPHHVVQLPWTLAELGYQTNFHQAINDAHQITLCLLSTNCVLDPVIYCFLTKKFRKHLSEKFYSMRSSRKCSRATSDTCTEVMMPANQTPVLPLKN
Experimental: as §5

SMILES	Inhibition of COX-2 transcription induced by IL-1β [1]	Protection from brain damage (Cresil-Violet histology) [2]	Inhibition of COX-2 transcription induced by PAF [3]	Reduction of infarcted volume [4]	KI ([5]; CHO-A homogenates)	IC50 ([5]; CHO-A homogenates (moderately express PAF-R))	Significance of 3H-PAF displacement ([6]; CHO-B cell homogenates)	IC50 ([6]; CHO-B homogenates (heavily overexpress PAF-R))	KI ([7]; CHO-C homogenates)	IC50 ([7]; CHO-C homogenates (do not express PAF-R))	Effect on accumulation of Evans Blue in brain cortex [8]	Inhibition of cryogenically induced COX-2 mRNA ([9]; 10 mg/kg intra-cerebroventricular 15 min before injury)	Duration of COX-2 mRNA inhibition after a single injection ([9]; 10 mg/kg intra-cerebroventricular)	Competitive activity at 3H-PAF binding sites (curve profile) [10]
COC(=O)C1=C(C)NC(C)=C(C(=O)OCCCOc2cc(OC)c(OC)c(OC)c2)C1C (stereo not shown) [LAU-0911, 2,4,6-Trimethyl-1,4-dihydro-pyridine-3,5-dicarboxylic acid 5-(3,4,5-trimethoxyphenoxy)-propyl-1-ester 3-methyl ester]	inhibited	significant protection	inhibited	40%	–	–	–	–	–	–	–	–	–	–
COC(=O)C1=C(C)NC(C)=C(C(=O)OCCCSc2ccc(-n3ccnc3)cc2)C1C (stereo not shown) [LAU-0903, 2,4,6-Trimethyl-1,4-dihydro-pyridine-3,5-dicarboxylic acid 5-[3-(imidazol-1-yl-phenylsulphanyl)]-propyl-1-ester 3-methyl ester]	inhibited	–	inhibited	–	No displacement	No displacement	significant displacement	~53.8 pM and 53.8 pM	No displacement	No displacement	protective effect	more than 50%	up to 6 hours	competitive activity at both binding sites
